Converted amounts (≈) assume the structure as drawn.
Experiments:
[1] = tested on: M. tuberculosis H37Rv; test: M. tuberculosis H37Rv growth inhibition; assay type: cell-based, Mycobacterium tuberculosis; conditions: for MIC: Mycobacterium tuberculosis, H37RV, read-out: Mt = M. tuberculosis H37Rv, MIC, estimated visually from 2x serial dilutions
[2] = tested on: M. smegmatis; test: M. smegmatis growth inhibition; assay type: cell-based, Mycobacterium smegmatis; conditions: Mycolicibacterium smegmatis, read-out: Ms = M. smegmatis, IC50
[3] = tested on: inner mitochondrial membrane potential, Δψ; test: Mitochondrial membrane potential; assay type: cell-based, Trypanosoma brucei; conditions: PCF, oligomycin 2 μg/ml, Figure 4C
[4] = tested on: M. tuberculosis Erdman; test: M. tuberculosis Erdman growth inhibition; assay type: cell-based, Mycobacterium tuberculosis; conditions: estimated visually from 2x serial dilutions
[5] = tested on: B. subtilis; test: B. subtilis growth inhibition; assay type: cell-based; conditions: Bacillus subtilis, read-out: Bs = B. subtilis, IC50
[6] = tested on: E. coli; test: E. coli growth inhibition; assay type: cell-based; conditions: Escherichia coli, read-out: Ec = E. coli, IC50
[7] = tested on: S. cerevisiae; test: S. cerevisiae growth inhibition; assay type: cell-based; conditions: Saccharomyces cerevisiae, read-out: Sc = S. cerevisiae, IC50
[8] = HEK293T cell growth inhibition; assay type: cell-based; conditions: human, HEK293T cells
[9] = HepG2 cell growth inhibition; assay type: cell-based; conditions: human, HepG2 cells
[10] = tested on: M. tuberculosis H37Rv; conditions: cited from earlier work
[11] = tested on: Trypanosoma brucei; test: T. brucei 427

In the case of `CC[C@@H](CO)NCCN[C@@H](CC)CO` [compound 1, ethambutol], the MIC [1] is reported as 2 µg/mL (≈ 9.79 µM) and the IC50 [2] is reported as 1 µg/mL (≈ 4.89 µM).

For `CC[C@H]1/C=C/C=C/C[C@@H](C)[C@H](O)[C@@](C)(O)C(=O)[C@@H](C)[C@H](O)[C@@H](C)C(=O)[C@@H](C)[C@H](O)[C@@H](C)/C=C/C(=O)O[C@@H]2[C@H](C)[C@H](CC1)O[C@]1(CC[C@H](C)[C@H](C[C@@H](C)O)O1)[C@H]2C` [oligomycin], the “effect on ADP phosphorylation by T. brucei mitochondria (Δψ decrease after ADP)” value [3] was “inhibited”.

With `CC(C)=CCC/C(C)=C/CNCCNC1C2CC3CC(C2)CC1C3` (centres unmarked) [compound 2, SQ109] the MIC [1] was 0.1 to 0.5 µg/mL (≈ 0.303 to 1.51 µM), the “Mt = M. tuberculosis H37Rv, MIC” value ([1]; estimated visually from 2x serial dilutions) was 0.15 µg/mL and the “MtE = M. tuberculosis Erdman, MIC” value [4] was 0.50 µg/mL. The “MtE = M. tuberculosis Erdman, MIC” value ([4]; listed as SQ109) was 0.1 to 0.5 µg/mL, the IC50 [2] was 3.1 µg/mL (≈ 9.38 µM) and the IC50 [5] was 7.6 µg/mL (≈ 23 µM). It also gave an IC50 [6] of 2.8 µg/mL (≈ 8.47 µM), an IC50 [7] of 1.1 µg/mL (≈ 3.33 µM) and a CC50 [8] of 1.9 µg/mL (≈ 5.75 µM). For the same compound, the CC50 [9] was 1.2 µg/mL (≈ 3.63 µM), the “MIC against M. tuberculosis (previous work)” value [10] was 0.15 µg/mL (≈ 0.454 µM) and the IC50 ([11]; Trypanosoma brucei, 72 h, read-out: Tb = Trypanosoma brucei, IC50) was 0.078 ± 0.001 µg/mL (≈ 0.236 µM). For the same compound, the “SI = CC50(HEK293T)/IC50(Tb)” value ([11]; selectivity index HEK293T vs T. brucei) was 24 and the “SI = CC50(HepG2)/IC50(Tb)” value ([11]; selectivity index HepG2 vs T. brucei) was 15.
